Patent publication US20110183336A1, “Method to Predict Responsiveness of Breast Cancer to Polyamine-Type Chemotherapy” (THE REGENTS OF THE UNIVERSITY OF CALIFORNIA, priority 2007, published 2011)
Where two headings read alike, the source gives them in different places.

Assays:
HCC70 cells [1] = assay: Caspase Glo 3/7 assay (apoptosis); format: cell-based, human; settings: select sensitive cell lines except T47D (FIG. 4: HCC70); 0.3, 10 and 300 uM
Protocol: (§1) FIGS. 4A and 4B. Effect of CGC-11047 on HCC70 cells with respect to cell cycle and apoptosis. In FIG. 4A, cells were treated for 72 hours with 0, 0.3, 10, or 100 μM CGC-11047. Shown are percentage of the cell population is G0-G1, S, or G2-M phase of cell growth. In FIG. 4B, cells were treated for 42, 48, or 72 hours with 0.3, 10, or 300 μM CGC-11047. Shown is the caspase activity (apoptosis) of treated cells within each condition compared to untreated controls.
(§2) Caspase Glo assay: Apoptosis was measured using the Promega Caspase Glo 3/7 assay (Promega, Madison, Wis.). Lyophilized pellet was eluted in solvent to make working Caspase Glo reagent. After incubation of cells with CGC-11047 at specified concentrations for 24, 48, and 72 hours, 50 ul of Caspase Glo reagent was added to the wells. After an incubation time of 1 hour, luminescence was measured using a luminometer.
(§3) Select sensitive cell lines were treated with CGC-11047 at 0.3, 10 and 300 uM. BrdU incorporation was measured and cell cycle distribution was analyzed at 48 and 72 hrs. Apoptosis was measured using the Promega Caspase Glo 3/7 assay.

T47D cells [2] = assay: BrdU incorporation and cell cycle distribution; format: cell-based, human; settings: T47D (FIG. 5); 0.3, 10 and 300 uM; 48 and 72 hrs
Protocol: as §1, with “5A” for “4A”, “5B.” for “4B.”, “T47D” for “HCC70”, “5A,” for “4A,”, “5B,” for “4B,”
(§4) BrdU cell staining and labeling: After incubation of cells with CGC-11047 at specified concentrations for 24, 48, and 72 hours, cells were pulsed with a final BrdU concentration of 10 uM for 30 minutes. Cells were then fixed with −20° C. 70% ethanol overnight. Fixed cells were incubated with 2N HCl for 5-7 minutes to denature DNA. Cell were then rinsed with 1× PBS to neutralize HCl.
(§5) Cells were incubated with primary donkey anti-BrdU antibody (diluted 1:100 in 0.5% PBS-tween20) for 1 hour then rinsed well with 0.5% PBS-tween20. Cells were incubated with Hoechst 33642 (diluted 1:2000) and secondary anti-donkey antibody (diluted 1:500) for 45 minutes and washed well with PBS-tween. […]
as §3

[3] = test system: panel of 42 breast cancer cell lines and 6 non-cancerous breast cell lines; assay: Cell growth inhibition assay, whole panel; format: cell-based; settings: whole breast cell line panel, 72 h
Description: To better delineate the response of breast cancer cells to conformationally-restricted polyamines, we studied the anti-proliferation activity of CGC-11047 (SL-11047 or Compound 58 in Table 1) among the panel of 42 breast cancer cell lines and 6 non-cancerous breast cell lines (e.g., human mammary epithelial cells, HMEC) of known subtype (basal or luminal) with a plethora of genomic background mimicking the human breast tumors. Extensive genomic background of these cell lines have been reported by Neve et al. (2006).
(§6) Cell culture: Breast cell lines were obtained from the ATCC and from collections developed in the laboratories of Drs. Steve Ethier and Adi Gazdar.
Cell growth inhibition assay and data analysis: Cells were plated at proper density in 96-well plates such that they would remain in log growth at the end of assay time. The cells were allowed to attach overnight before being exposed to CGC-11047 for 72 h. Drugs were dissolved in water as 100 mM stock. […] The cell growth was determined using Cell Titer Glo (CTG) assay (CellTiter-Glo Luminescent Cell Viability Assay, Promega, Madison, Wis.), with slight modification form manufacturer's protocol, at day 0 (time when drug was added) and at day 3 of drug exposure. […] Luminescence from the assay was recorded using BIO-TEK FLx800. […]

HCC70 cells [4] = assay: BrdU incorporation and cell cycle distribution; format: cell-based, human; settings: select sensitive cell lines except T47D (FIG. 4: HCC70); 0.3, 10 and 300 uM; 48 and 72 hrs
Protocol: as §1, §4, §5, §3

T47D cells [5] = assay: Caspase Glo 3/7 assay (apoptosis); format: cell-based, human; settings: T47D (FIG. 5); 0.3, 10 and 300 uM
Protocol: as §1, with “5A” for “4A”, “5B.” for “4B.”, “T47D” for “HCC70”, “5A,” for “4A,”, “5B,” for “4B,”
as §2, §3

MCF7 = assay: Cell growth inhibition assay (Cell Titer Glo); format: cell-based, human; settings: MCF7, Luminal, 72 h
Protocol: as §6
(§7) Cell growth inhibition assay and data analysis: Cells were plated at proper density in 96-well plates such that they would remain in log growth at the end of assay time. The cells were allowed to attach overnight before being exposed to CGC-11047 for 72 h. Drugs were dissolved in water as 100 mM stock. For the dose response study, a set of 9 doses from 5×10^−3 to 1.3×10^−8 M (final concentration) in 1:5 serial dilution were added in triplicate wells. The final DMSO concentration in the treated well was 0.3% or less. The cell growth was determined using Cell Titer Glo (CTG) assay (CellTiter-Glo Luminescent Cell Viability Assay, Promega, Madison, Wis.), with slight modification form manufacturer's protocol, at day 0 (time when drug was added) and at day 3 of drug exposure. Briefly, CTG reagent was diluted with PBS (1:1, volume: volume) and the culture media was removed from the 96-well plate prior to adding 50 μl per well of the diluted CTG reagent. Luminescence from the assay was recorded using BIO-TEK FLx800.
(§8) Data calculations were made according to the method described by the NCI/NIH DTP Human Tumor Cell Line Screen Process (http://dtp.nci.nih.gov/branches/btb/ivclsp.html) and as described previously (Monks, A et al., JNCI 83:757-766, 1991). The percent growth curve is calculated as [(T−T0)/(C−T0)]×100, where T0 is the cell count at day 0, C is the vehicle control (e.g. 0.3% DMSO without drug) cell count at day 3, and T is the cell count at the test concentration. The GI50 and TGI value are determined as the drug concentration that results in a 50% and 0% growth at 72 h drug exposure. LC50 is calculated as [(T−T0)/T0]×100=−50, when T<T0.

ZR75B = assay: Cell growth inhibition assay (Cell Titer Glo); format: cell-based, human; settings: Luminal, 72 h
Protocol: as §6, §7, §8

HCC1937 = assay: Cell growth inhibition assay (Cell Titer Glo); format: cell-based, human; settings: HCC1937, Basal A, 72 h
Protocol: as §6, §7, §8

HCC1419 = assay: Cell growth inhibition assay (Cell Titer Glo); format: cell-based, human; settings: HCC1419, Luminal, 72 h
Protocol: as §6, §7, §8

MCF10A = assay: Cell growth inhibition assay (Cell Titer Glo); format: cell-based, human; settings: N, Basal B, 72 h
Protocol: as §6, §7, §8

HCC70 = assay: Cell growth inhibition assay (Cell Titer Glo); format: cell-based, human; settings: HCC70, Basal A, 72 h
Protocol: as §6, §7, §8

**Q.** For `CCNCCCNC/C=C\CNCCCNCC` [CGC-11047], which “apoptosis (caspase 3/7 activity)” value (HCC70 cells [1]) is on record?
**A.** very little apoptosis detected

**Q.** What about the “cell cycle distribution / BrdU incorporation” value (T47D cells [2]) of the same compound?
**A.** very little changes in the cell cycle

**Q.** What about the GI50 ([3]; Homo sapiens, read-out: median GI50) of the same compound?
**A.** ~40 µM

**Q.** What about the GI50 ([3]; units given in the value, read-out: GI50 range of the cell lines tested) of the same compound?
**A.** 0.4 to 5000 µM

**Q.** What about the “cell cycle distribution / BrdU incorporation” value (HCC70 cells [4]) of the same compound?
**A.** growth inhibition is mainly caused by the delay in cell cycle, a G1 arrest

**Q.** What about the “apoptosis (caspase 3/7 activity)” value (T47D cells [5]) of the same compound?
**A.** significant accumulation of apoptosis

**Q.** And the GI50 (MCF7; Homo sapiens)?
**A.** 90 µM

**Q.** What about the “TGI” value (MCF7) of the same compound?
**A.** 1200 µM

**Q.** And the GI50 (ZR75B; Homo sapiens, ZR-75B)?
**A.** 200 µM

**Q.** What about the “TGI” value (ZR75B) of the same compound?
**A.** 2000 µM

**Q.** What about the “TGI” value (HCC1937) of the same compound?
**A.** 300 µM

**Q.** And the GI50 (HCC1937; Homo sapiens)?
**A.** 0.8 µM

**Q.** And the “TGI” value (HCC1419)?
**A.** 31 µM

**Q.** And the GI50 (HCC1419; Homo sapiens)?
**A.** 7 µM

**Q.** And the GI50 (MCF10A; Homo sapiens, MCF-10A)?
**A.** 200 µM

**Q.** What about the “TGI” value (MCF10A) of the same compound?
**A.** 3300 µM

**Q.** What about the “TGI” value (HCC70) of the same compound?
**A.** 0.53 µM

**Q.** And the GI50 (HCC70; Homo sapiens)?
**A.** 0.4 µM
